Tests used:
Test in all cases: relative viability (nuclei count vs DMSO), 5 days (fraction); higher = more cells survive
SGI-1776 + Bortezomib = compound: CN1CCC(CNc2ccc3ncc(-c4cccc(OC(F)(F)F)c4)n3n2)CC1 [SGI-1776] + CC(C)C[C@H](NC(=O)[C@H](Cc1ccccc1)NC(=O)c1cnccn1)B(O)O [Bortezomib] (partner 0.002 µM)
Procedure, shortened: (§1)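 Dosing by pin tool came one day after lung cancer cell lines were seeded in 1536-well plates, using either one drug or a fixed anchor-drug dose plus five library-drug doses (not always all listed) in √10 steps. After 5 days, nuclei were counted on 4× images. Relative viability is treated-well nuclei count divided by vehicle-well nuclei count, and values are medians of duplicate plates.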

SGI-1776 + Crizotinib = compound: CN1CCC(CNc2ccc3ncc(-c4cccc(OC(F)(F)F)c4)n3n2)CC1 [SGI-1776] + C[C@@H](Oc1cc(-c2cnn(C3CCNCC3)c2)cnc1N)c1c(Cl)ccc(F)c1Cl [Crizotinib] (partner 1 µM)
Procedure, shortened: as §1

Entinostat + Trametinib = compound: Nc1ccccc1NC(=O)c1ccc(CNC(=O)OCc2cccnc2)cc1 [Entinostat] + CC(=O)Nc1cccc(-n2c(=O)n(C3CC3)c(=O)c3c(Nc4ccc(I)cc4F)n(C)c(=O)c(C)c32)c1 [Trametinib] (partner 0.02 µM)
Procedure, shortened: as §1

Entinostat + Pictilisib = compound: Nc1ccccc1NC(=O)c1ccc(CNC(=O)OCc2cccnc2)cc1 [Entinostat] + CS(=O)(=O)N1CCN(Cc2cc3nc(-c4cccc5[nH]ncc45)nc(N4CCOCC4)c3s2)CC1 [Pictilisib] (partner 1 µM)
Procedure, shortened: as §1

UMC-11
relative viability (SGI-1776 + Bortezomib; first compound 0.08 µM): 0.741 | relative viability (SGI-1776 + Bortezomib; first compound 0.8 µM): 0.809 | relative viability (SGI-1776 + Bortezomib; first compound 2.53 µM): 0.647 | relative viability (SGI-1776 + Bortezomib; first compound 8 µM): 0.688 | relative viability (SGI-1776 + Crizotinib; first compound 0.08 µM): 0.614 | relative viability (SGI-1776 + Crizotinib; first compound 0.8 µM): 0.498 | relative viability (SGI-1776 + Crizotinib; first compound 2.53 µM): 0.665 | relative viability (SGI-1776 + Crizotinib; first compound 8 µM): 0.169 | relative viability (Entinostat + Trametinib; first compound 0.02 µM): 0.736 | relative viability (Entinostat + Trametinib; first compound 0.06325 µM): 0.895 | relative viability (Entinostat + Trametinib; first compound 0.2 µM): 0.554 | relative viability (Entinostat + Trametinib; first compound 0.6325 µM): 0.163 | relative viability (Entinostat + Trametinib; first compound 2 µM): 0.142 | relative viability (Entinostat + Pictilisib; first compound 0.02 µM): 0.865 | relative viability (Entinostat + Pictilisib; first compound 0.06325 µM): 0.848 | relative viability (Entinostat + Pictilisib; first compound 0.2 µM): 0.836 | relative viability (Entinostat + Pictilisib; first compound 0.6325 µM): 0.144 | relative viability (Entinostat + Pictilisib; first compound 2 µM): 0.136
